Data from US20230346831A1, “METHODS FOR TREATING […] USING LOW DOSE CARBON MONOXIDE” (priority 2020, published 2023).

System: 8988T/TGL cells
Assay: orthotopic (intrasplenic) model of liver metastasis of PDAC
Assay type: in vivo
Details: 8988T/TGL cells intrasplenic, NSG mice, 5 days a week
Experimental: NSG mice were generated by the Jackson Laboratory. All mice were housed in accordance with the institutional guidelines. […] Zhang, & Y. N. Du, Methods Mol Biol 1882, 309-320 (2019)). The spleen was removed after the injection. Starting one day after injection, mice were randomized into two groups. One group was kept in a regular mouse holding room (control), and the other group was put into a chamber delivering 250 ppm CO 3 hours daily. Mice were subjected to bioluminescent imaging using the In Vivo Imaging System Spectrum (PerkinElmer, Waltham, MA) at 0, 1, 3 days and then weekly after tumor cells were injected until the final time points, as described previously by Y. C. Du, D. S. Klimstra, & H. Varmus, PLoS One 4, e6932 (2009)). Luciferase signals were transformed to nature log scale before analysis. GEE method was used to test the overall difference of tumor growth over time. All analyses were performed in statistical software SAS Version 9.4 (SAS Institute, Cary, NC).
Mouse tissues were removed and fixed in 10% buffered formalin overnight at room temperature. […] Tumor number and tumor size were quantified by scanning the whole tissue slide of each mouse under microscope. The size of tumor area of each tumor was measured by the cellSens imaging software (Olympus, Tokyo, Japan). […]

[C-]#[O+] [CO, Carbon monoxide]
metastatic tumor numbers in liver sections (histological analysis) (250 ppm CO 3 hours daily, 19 days after the injection): significantly less
bioluminescence over the time course, control vs CO group (250 ppm CO gas 3 hours daily, P < 0.0001, GEE method): Significant difference
